Consider 102 compounds from the RepoRT retention time repository (doi:10.1016/j.chroma.2015.11.014).

This series in a line: RP, Agilent ZORBAX Eclipse Plus C18, 150 × 2.1 mm, 3.5 µm, 40 °C, 0.3 mL/min, estimated dead time 1.1 min; A: water + 0.1% formic acid; B: acetonitrile + 0.1% formic acid; gradient (min/%B) 0/2 1/2 2/20 16.5/98 22/98. As to conditions: stereoisomer not certain.

For `CCCCCCCCCCC(C(=O)c1ccc(OC)c(OC)c1)[N+](C)(C)C` (configuration not stated), the LC retention time was 10.9 min.
For `c1ccc2c(c1)Nc1ccccc1S2` the value was 13.1 min; for `Cc1ccnc2c1NC(=O)c1cccnc1N2C1CC1`, 7.3 min; for `CN(C)CCC=C1c2ccccc2CCc2ccccc21`, 8.71 min.
Take `CC(C)(C)NCC(O)COc1cccc2c1CC(O)C(O)C2` (configuration not stated): the LC retention time is 5.13 min.
In the case of `CCN(CC)CCNC(=O)c1cc(S(C)(=O)=O)ccc1OC` it was 4.86 min; in that of `CC[P+](c1ccccc1)(c1ccccc1)c1ccccc1`, 7.39 min.
In the case of `c1ccc([P+](c2ccccc2)(c2ccccc2)c2ccccc2)cc1` it was 8.63 min; in that of `CC12CC=C3c4ccc(O)cc4CCC3C1CCC2(O)CC#N` (configuration not stated), 9.96 min; in that of `O=C(O)c1cccc2c(=O)c3ccccc3[nH]c12`, 8.82 min.
For `C[N+](C)(C)c1ccccc1` the value was 2.83 min; for `CC(=O)C1CCC2C3CCC4=CC(=O)CCC4(C)C3C(O)CC12C` (configuration not stated), 10.3 min; for `CNC(=C[N+](=O)[O-])NCCS(=O)Cc1ccc(CN(C)C)o1` (configuration not stated), 2.94 min.
As to `Cc1nnc(-c2ccccc2)c(=O)[nH]1`, the LC retention time is 6.12 min.
For `CCC(C)C1OC2(C=CC1C)CC1CC(CC=C(C)C(OC3CC(OC)C(OC4CC(OC)C(NC(C)=O)C(C)O4)C(C)O3)C(C)C=CC=C3COC4C(O)C(C)=CC(C(=O)O1)C34O)O2` (configuration not stated), the LC retention time is 16.2 min.
In the case of `O=c1c(-c2ccc(O)cc2)coc2cc(O)ccc12` it was 7.74 min; in that of `Cc1cc2nc3[nH]c(=O)[nH]c(=O)c3nc2cc1C`, 7.07 min; in that of `Cc1ccccc1NC(=O)Nc1ccccc1C`, 11.1 min.
Take `Cc1ccccc1NC(=O)NC1CCCCC1`: the LC retention time is 11 min.
In the case of `O=S(=O)([O-])CCCC[P+](c1ccccc1)(c1ccccc1)c1ccccc1` it was 7.14 min; in that of `CCCCOCCOP(=O)(OCCOCCCC)OCCOCCCC`, 14.6 min; in that of `CCCCCCC[N+](CCCCCCC)(CCCCCCC)CCCCCCC`, 14.7 min.
In the case of `CC(CN1c2ccccc2Sc2ccccc21)N(C)C` (configuration not stated), the LC retention time is 8 min.
In the case of `CC12CCC3c4ccc(OCc5ccccc5)cc4CCC3C1CC(O)C2O` (configuration not stated) it was 13.3 min; in that of `CN1C=CN(Cc2ccccc2)C1`, 4.93 min; in that of `C#CCC1=C(C)C(OC(=O)C2C(C=C(C)C)C2(C)C)CC1=O` (configuration not stated), 14.9 min.
In the case of `Cc1ncc(CO)c(CO)c1O` it was 2.11 min; in that of `COc1ccc(C(CN(C)C)C2(O)CCCCC2)cc1` (configuration not stated), 6.63 min.
Regarding `CCCCCCCCCC[N+](C)(C)CCCCCCCC`, the LC retention time is 12.4 min.
In the case of `CC1(C)NC(=O)NC1=O` it was 3.47 min.
As for `O=C1CC(c2ccccc2)Oc2ccccc21` (configuration not stated), the LC retention time was 12.6 min.
In the case of `CC(C)(C)NCC(O)c1ccc(O)c(CO)c1` (configuration not stated) it was 4.69 min; in that of `CC(Cc1ccc(C(C)(C)C)cc1)CN1CC(C)OC(C)C1` (configuration not stated), 9.53 min; in that of `COc1cccc(OC)c1OC`, 9.03 min.
For `O=C1CC2(CCCCC2)CO1`, the LC retention time is 9.65 min.
For the compound `CCCC1CC(C(=O)NC(C(C)O)C2OC(SC)C(O)C(O)C2O)N(C)C1` (configuration not stated), the LC retention time is 4.88 min.
For `CCc1cccc(C)c1N`, the LC retention time was 7.96 min.
For `CC(C)CC(CN)CC(=O)O` (configuration not stated) the value was 5.17 min.
For `Cn1cnc2nc[nH]c2c1=N` the value was 2.36 min; for `CC1(C)CC(O)CC(C)(C)N1O`, 5.7 min; for `COc1ccc2nc(SCc3[nH]cc(C)c(=O)c3C)[nH]c2c1`, 6.17 min.
As to `c1cncc(-c2nc3ccccc3[nH]2)c1`, the LC retention time was 5.16 min.
For `CCNc1nc(N)[nH]c(=O)n1` the value was 2.31 min.
For `CC1(C)CC(=O)CC(C)(C)N1` the value was 2.82 min.
In the case of `COCCOCCOCCOCCOC` it was 6.01 min.
On to `CCN1CCCC1CNC(=O)c1cc(S(=O)(=O)CC)c(N)cc1O` (configuration not stated), for which the LC retention time is 5.62 min.
In the case of `COCC(C)N(C(=O)CS(=O)(=O)O)c1c(C)csc1C` (configuration not stated) it was 7.04 min; in that of `CCCCCCCCCCCCCN1CC(C)OC(C)C1` (configuration not stated), 10.4 min; in that of `CC(C)NCC(O)COc1ccc(C(O)C(N)=O)cc1` (configuration not stated), 3.21 min.
Regarding `NCCCCC(NC(CCc1ccccc1)C(=O)O)C(=O)N1CCCC1C(=O)O` (configuration not stated), the LC retention time was 5.18 min.
For `CCCCCCCCCCCCCC(=O)OCC(O)COP(=O)([O-])OCC[N+](C)(C)C` (configuration not stated) the value was 12.7 min.
In the case of `NC(=O)N1c2ccccc2CC(O)c2ccccc21` (configuration not stated) it was 7.19 min; in that of `Cc1ncc([N+](=O)[O-])n1CCO`, 4.81 min; in that of `CCC(CC)COC(=O)C(C)NP(=O)(OCC1OC(C#N)(c2ccc3c(N)ncnn23)C(O)C1O)Oc1ccccc1` (configuration not stated), 9.97 min.
For `CCOC(=O)C(C)[P+](c1ccccc1)(c1ccccc1)c1ccccc1` (configuration not stated) the value was 8.09 min; for `CCOC(=O)C[P+](c1ccccc1)(c1ccccc1)c1ccccc1`, 8 min.
Take `CC1(C)CCCC(C)(C)N1`: the LC retention time was 4.82 min.
For `Cc1c(C(C)C)c(=O)n(-c2ccccc2)n1C` the value was 9.54 min.
In the case of `Cc1cc(C2CC2)nc(Nc2ccccc2)n1`, the LC retention time is 10.8 min.
For `COc1ccc(C(=O)c2ccccc2O)c(O)c1` the value was 11.8 min.
For `Cn1c(=O)c2[nH]cnc2n(C)c1=O` the value was 4.94 min; for `CCCCCCCCCCC(C(=O)OCC)[N+](C)(C)Cc1ccccc1` (configuration not stated), 11.7 min; for `Cc1ccc2n[nH]nc2c1`, 7.02 min.
For `CCC(C)C(=O)OC1CC(O)C=C2C=CC(C)C(CCC(O)CC(O)CC(=O)O)C21` (configuration not stated) the value was 8.64 min; for `COCC(C)N(C(=O)C(=O)O)c1c(C)csc1C` (configuration not stated), 8.21 min; for `O=C(CO)Nc1ccccc1`, 5.9 min.
Turning to `CCCC[N+]1(C)CCCCC1`, the LC retention time is 4.66 min.
In the case of `CNc1c(C)n(C)n(-c2ccccc2)c1=O` it was 4.82 min.
For `COc1ccc(OC)cc1` the value was 10.1 min; for `O=C1NC(=O)C(c2ccccc2)(c2ccccc2)N1`, 9.18 min; for `CCCC(=O)Nc1ccc(OCC(O)CNC(C)C)c(C(C)=O)c1` (configuration not stated), 5.96 min.
For `CNCCC(Oc1cccc2ccccc12)c1cccs1` (configuration not stated) the value was 8.43 min.
Consider `O=c1[nH]c(=O)c2cn[nH]c2[nH]1`, for which the LC retention time was 2.85 min.
In the case of `O=C1OCCOC(=O)c2ccc(cc2)C(=O)OCCOC(=O)c2ccc(cc2)C(=O)OCCOC(=O)c2ccc1cc2` it was 14.5 min.
In the case of `CCOC(=O)C(CCc1ccccc1)NC(C)C(=O)N1C(C(=O)O)CC2CCCC21` (configuration not stated), the LC retention time was 7.85 min.
In the case of `COc1ccc(CCN(C)CCCC(C#N)(c2ccc(OC)c(OC)c2)C(C)C)cc1OC` (configuration not stated) it was 8.54 min; in that of `CCCCCCCCCCCCCC[N+](C)(C)CCCCCCCCCCCCCC`, 16.9 min; in that of `COc1cc(C(=O)c2cnc(N)nc2N)cc(OC)c1OC`, 5.86 min.
In the case of `Cc1cn(C2CC(O)C(CO)O2)c(=O)[nH]c1=O` (configuration not stated) it was 4.53 min; in that of `CCOc1ccc2ccccc2c1C(=O)NC1C(=O)N2C1SC(C)(C)C2C(=O)O` (configuration not stated), 10.6 min; in that of `COCCOC(=O)Nc1cccc(N)c1`, 4.8 min.
In the case of `CCCCN1C=CN(C)C1C` (configuration not stated) it was 4.73 min.
With `CCCCCCCCn1sccc1=O`, the LC retention time was 11.9 min.
In the case of `CCCCCCCCCCCCCCCC[N+](C)(C)Cc1ccccc1` it was 13.9 min.
For `C=C(OCC)[P+](c1ccccc1)(c1ccccc1)c1ccccc1`, the LC retention time is 9.3 min.
In the case of `CC(=O)Nc1cc(NC(C)=O)cc(C(=O)O)c1` it was 5.22 min; in that of `Cc1ccnc(NS(=O)(=O)c2ccc(N)cc2)n1`, 5.77 min; in that of `CC(C)(c1ccc(O)c([N+](=O)[O-])c1)c1ccc(O)c([N+](=O)[O-])c1`, 13.8 min.
Take `CC[N+](CC)(CC)Cc1ccccc1`: the LC retention time was 5.09 min.
In the case of `Nc1cccc2c1CN(C1CCC(=O)NC1=O)C2=O` (configuration not stated) it was 5.24 min; in that of `CN(Cc1cnc2nc(N)nc(N)c2n1)c1ccc(C(=O)NC(CCC(=O)O)C(=O)O)cc1` (configuration not stated), 4.98 min.
In the case of `CC1=CC(C)(C)Nc2ccccc21` it was 12.5 min; in that of `O=C1NS(=O)(=O)c2ccccc21`, 5.2 min; in that of `CCOC(=O)Nc1cccc(N)c1C`, 5.08 min.
Regarding `CCCCCCCCCCCCCCCC[P+](CCCC)(CCCC)CCCC`, the LC retention time is 16 min.
In the case of `CC1(C)SC2C(NC(=O)C(N)c3ccc(O)cc3)C(=O)N2C1C(=O)O` (configuration not stated) it was 4.71 min.
In the case of `Cc1ccc(O)c(-n2nc3ccccc3n2)c1`, the LC retention time is 15.2 min.
For `OCc1coc(-c2ccccc2)n1` the value was 7.56 min; for `CCCC[N+]1(C)CCCC1`, 4.27 min; for `CC(C)c1nc(CN(C)C(=O)NC(C(=O)NC(Cc2ccccc2)CC(O)C(Cc2ccccc2)NC(=O)OCc2cncs2)C(C)C)cs1` (configuration not stated), 12.7 min.
Consider `O=C(Nc1ccccc1)Nc1ccccc1`, for which the LC retention time was 10.8 min.
Regarding `O=c1[nH]sc2ccccc12`, the LC retention time is 6.23 min.
